Each structure is given as a SMILES string. Activity calls are given as the source filed them. Rule as the data show it, for most assays here: actives have a measured EC50 and inactives only a lower limit.

For orientation: IC50 means the midpoint of a concentration-inhibition curve. As a reminder, the AC50 is the concentration giving half of the maximal activity seen. Usually CC50 stands for the concentration that lowers cell viability or growth by half.

The target of assay [1] is Protein Tat (Human immunodeficiency virus type 1 group M subtype B (isolate HXB2)(HIV-1), UniProt P04608). The format is functional.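 Also: tat binding to TAR RNA read out by fluorescence polarization.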
Assay [2] concerns the target T1, Protein RecA (Mycobacterium tuberculosis, UniProt P9WHJ3).
T1 sequence (P9WHJ3 whole entry): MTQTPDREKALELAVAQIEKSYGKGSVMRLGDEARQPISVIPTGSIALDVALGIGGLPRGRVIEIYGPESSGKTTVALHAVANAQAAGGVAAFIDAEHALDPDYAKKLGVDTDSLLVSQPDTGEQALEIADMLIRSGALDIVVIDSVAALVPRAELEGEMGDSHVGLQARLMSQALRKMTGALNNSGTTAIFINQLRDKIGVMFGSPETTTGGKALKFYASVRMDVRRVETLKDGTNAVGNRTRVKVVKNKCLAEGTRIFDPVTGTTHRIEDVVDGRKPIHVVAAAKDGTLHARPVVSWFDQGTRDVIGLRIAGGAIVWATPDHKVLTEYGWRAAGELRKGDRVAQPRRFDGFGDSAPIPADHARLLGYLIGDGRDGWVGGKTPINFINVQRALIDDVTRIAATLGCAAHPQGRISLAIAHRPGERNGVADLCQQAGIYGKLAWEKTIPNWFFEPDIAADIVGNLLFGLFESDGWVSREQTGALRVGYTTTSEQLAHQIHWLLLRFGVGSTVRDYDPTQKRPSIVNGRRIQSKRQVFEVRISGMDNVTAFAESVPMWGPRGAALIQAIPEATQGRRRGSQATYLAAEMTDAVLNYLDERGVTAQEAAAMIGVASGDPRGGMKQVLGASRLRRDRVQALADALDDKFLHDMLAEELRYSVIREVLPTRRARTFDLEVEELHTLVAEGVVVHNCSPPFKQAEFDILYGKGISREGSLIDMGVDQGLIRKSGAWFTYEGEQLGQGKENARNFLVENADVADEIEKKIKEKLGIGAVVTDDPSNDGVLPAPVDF
In words: Fluorescence Cell-Free Homogeneous Dose Retest to Identify Inhibitors of RecA-Intein Splicing Activity. [Related pubchem assays (depositor defined):AID2097, AID2223, AID489010, AID492950]. The class given is functional.

The target in assay [3] is T2, SUMO-activating enzyme (Homo sapiens, UniProt Q9UBT2). Description: inhibitors of in vitro SUMOylation cascade, primary screen, biochemical, HTRF, uHTS (AID 2006). The format is protein-complex assay.
Assay [4] concerns the target T2, SUMO-activating enzyme. Description: SUMOylation inhibitor hit validation, confirmation, SUMOylation inhibitor project, biochemical, AlphaScreen (AID 2018). The format is functional.
For assay [5], the target named is Large T antigen (Simian virus 40, UniProt P03070). The class given is functional, Betapolyomavirus macacae.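 Also: Confirmatory-stage PubChem screen for compounds that inhibit SV40 T antigen.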
The nature of assay [6]: Luminescence-based cell-based high throughput dose response assay to identify activators of the DAF-12 from the parasite S. stercoralis (ssDAF-12). The format is functional.
Assay [7] can be described thus: Luminescence Cell-Based Dose Confirmation HTS to Identify Inhibitors of Platelet Dense Granule Release. [Related pubchem assays: 1663 (Primary HTS), 1678 (Summary of Project)]. The format is functional.
Assay [8] deals with T3, Oxysterols receptor LXR-beta (Homo sapiens, UniProt P55055).
T3 sequence (P55055 whole entry): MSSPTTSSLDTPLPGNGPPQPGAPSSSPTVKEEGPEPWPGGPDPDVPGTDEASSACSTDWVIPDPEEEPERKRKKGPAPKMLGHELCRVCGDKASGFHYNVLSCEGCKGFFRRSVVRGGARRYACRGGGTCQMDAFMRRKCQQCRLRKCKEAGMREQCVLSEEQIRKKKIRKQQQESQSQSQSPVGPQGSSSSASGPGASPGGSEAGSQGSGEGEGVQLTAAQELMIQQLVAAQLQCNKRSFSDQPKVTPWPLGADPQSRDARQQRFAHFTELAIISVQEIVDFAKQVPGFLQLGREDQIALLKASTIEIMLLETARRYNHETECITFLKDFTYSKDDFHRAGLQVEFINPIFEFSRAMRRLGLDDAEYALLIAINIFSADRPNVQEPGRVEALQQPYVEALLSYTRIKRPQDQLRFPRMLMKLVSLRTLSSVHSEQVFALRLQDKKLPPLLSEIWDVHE
In words: LXR agonists, Gal4 luciferase reporter, dose response, counter-screen for ssDAF-12 agonist project, cell-based, luminescence, HEK293, S. stercoralis campaign (AID 720737). The format is functional. The note with it: read-out: IC50 (the source's name). Background: A reporter such as luciferase makes a cellular process visible.

Assay [9] has as its target Luciferin 4-monooxygenase (Photinus pyralis, UniProt P08659). Description: firefly luciferase enzyme inhibitors, dose response, biochemical, luminescence (AID 1891).
A short description of assay [10]: cells.
Assay [11] deals with T3, Oxysterols receptor LXR-beta. The class given is functional, cell-based.
A short description of assay [12]: C. albicans growth with fluconazole, confirmation, fluorescence, retest (AID 2467). The format is functional, cell-based.
A short description of assay [13]: cytotoxicity toward NIH3T3 fibroblasts, dose response, counter-screen, cell-based, ATP luminescence, mouse fibroblasts (AID 2010).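 Also: cells exposed to compound for about 90 hours before reading.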 The class given is functional. (In general: Counterscreens check selectivity or assay interference.)
The subject of assay [14] is H4. In words: Luminescence Cell-Based Dose Response HTS to Identify Activators of 5'UTR Stem-Loop Driven Prion Protein mRNA Translation in H4 Neuroglioblastoma Cells. [Related pubchem assays: 1829 (Project Summary), 1814 (Primary HTS)]. The class given is functional. Conditions: Homo sapiens.
The nature of assay [15]: Luminescence Cell-Based Dose Confirmation HTS to Identify Activators of 5'UTR Stem-Loop Driven Alpha-Synuclein mRNA Translation in H4 Neuroglioblastoma Cells. [Related pubchem assays: 1829 (Project Summary), 1814 (Primary HTS)]. The class given is functional.
Assay [16] in a line: Luminescence Cell-Based Dose Response HTS to Identify Activators of Luciferase Translation or Activity in H4 […] Cells. [Related pubchem assays: 1829 (Project Summary), 1814 (Primary HTS)]. The format is functional.
The nature of assay [17]: inhibitors of PGC1a acetylation in cells, dose response, cell-based, cherry-picked samples (AID 720514).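 Also: potency may reflect raised or lowered acetylation signal.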 The class given is functional.
Assay [18] is described as follows: NIH-3T3 fibroblast cytotoxicity, dose response, cytotoxicity control, cell-based, fluorescence, Alamar Blue, secondary assay (AID 2327).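 Also: NIH-3T3 mouse fibroblasts cultured with fluconazole at 8 µg/mL.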 The format is functional. A general note: The colour change of resazurin is a common sign of viable cells or microbes.
In assay [19] the target is T4, Replicative DNA helicase DnaB (Mycobacterium tuberculosis, UniProt P9WMR3).
T4 sequence (P9WMR3 whole entry): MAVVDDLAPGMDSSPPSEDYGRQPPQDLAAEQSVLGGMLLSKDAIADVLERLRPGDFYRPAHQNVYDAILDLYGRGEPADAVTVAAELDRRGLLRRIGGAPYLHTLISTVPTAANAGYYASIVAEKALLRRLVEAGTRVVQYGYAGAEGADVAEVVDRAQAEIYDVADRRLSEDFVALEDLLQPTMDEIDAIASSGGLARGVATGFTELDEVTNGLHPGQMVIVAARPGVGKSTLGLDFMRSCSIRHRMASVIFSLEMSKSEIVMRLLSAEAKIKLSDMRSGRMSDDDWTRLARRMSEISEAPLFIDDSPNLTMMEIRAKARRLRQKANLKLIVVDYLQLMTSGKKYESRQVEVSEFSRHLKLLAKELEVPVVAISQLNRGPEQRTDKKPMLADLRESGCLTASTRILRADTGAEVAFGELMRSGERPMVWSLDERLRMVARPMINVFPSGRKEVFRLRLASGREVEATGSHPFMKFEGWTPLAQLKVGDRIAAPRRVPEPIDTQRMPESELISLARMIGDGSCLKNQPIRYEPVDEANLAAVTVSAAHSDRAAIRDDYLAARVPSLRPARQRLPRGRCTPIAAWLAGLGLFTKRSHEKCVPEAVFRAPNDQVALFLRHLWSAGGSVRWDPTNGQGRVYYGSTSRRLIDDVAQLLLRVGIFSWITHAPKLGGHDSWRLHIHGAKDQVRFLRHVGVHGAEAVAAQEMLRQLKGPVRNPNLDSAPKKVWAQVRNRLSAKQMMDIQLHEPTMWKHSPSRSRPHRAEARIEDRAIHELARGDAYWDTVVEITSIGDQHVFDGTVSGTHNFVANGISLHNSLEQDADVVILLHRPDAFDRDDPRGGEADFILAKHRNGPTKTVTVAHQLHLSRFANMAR
In words: DnaB intein splicing inhibitors, dose response, biochemical, cell-free fluorescence (AID 449749). The format is functional.

Assay [20] is described as follows: inhibitors of intracellular T. cruzi replication, confirmation, NIH3T3 host cells, beta-gal luminescence (AID 2044).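 Also: intracellular parasites grown in NIH/3T3 mouse fibroblasts as host cells; luminescent beta-galactosidase reporter signal from transgenic T. cruzi replicating inside host cells; inhibitors lower the luminescence signal.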 The class given is functional, cell-based.
The nature of assay [21]: cytotoxicity toward DRD oncogenic fibroblasts, dose response, cell-based, non-viral oncogenic, luminescence (AID 1934). The class given is functional. The note with it: Homo sapiens.
Assay [22] deals with BJ. Description: cytotoxicity toward BJ-TERT-LT-ST fibroblasts, dose response, cell-based, RAS-independent, luminescence (AID 1935).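 Also: BJ fibroblasts immortalized with TERT plus LT and ST oncogenes.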 The class given is functional. The note with it: Homo sapiens.
Assay [23] deals with BJ. Description: cytotoxicity toward BJ-TERT fibroblasts, dose response, cell-based, RAS-independent, luminescence (AID 1933). The format is functional. Conditions: Homo sapiens.
The nature of assay [24]: Vero cell cytotoxicity, dose response, cytotoxicity control for Vif-APOBEC3G degradation inhibitor project, Vero cells (AID 1117358). The format is functional. Conditions: Human immunodeficiency virus 1, Vero.
For assay [25], the system named is BJ. In words: cells. The format is functional, cell-based. The note with it: Homo sapiens.

Sequence of Protein Tat (P04608 whole entry): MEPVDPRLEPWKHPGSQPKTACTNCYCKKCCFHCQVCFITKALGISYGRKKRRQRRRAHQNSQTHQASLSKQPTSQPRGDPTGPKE
T2 sequence (Q9UBE0 whole entry): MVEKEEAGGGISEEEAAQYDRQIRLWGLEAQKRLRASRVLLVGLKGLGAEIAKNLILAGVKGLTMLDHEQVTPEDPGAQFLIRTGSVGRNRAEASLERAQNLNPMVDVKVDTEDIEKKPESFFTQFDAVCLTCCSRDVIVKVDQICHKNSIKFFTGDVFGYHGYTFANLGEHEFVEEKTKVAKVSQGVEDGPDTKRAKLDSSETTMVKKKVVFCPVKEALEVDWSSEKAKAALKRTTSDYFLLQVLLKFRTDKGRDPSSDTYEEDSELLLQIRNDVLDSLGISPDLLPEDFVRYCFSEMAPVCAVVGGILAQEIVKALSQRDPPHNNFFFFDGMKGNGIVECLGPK
T2 sequence (Q9UBT2 whole entry): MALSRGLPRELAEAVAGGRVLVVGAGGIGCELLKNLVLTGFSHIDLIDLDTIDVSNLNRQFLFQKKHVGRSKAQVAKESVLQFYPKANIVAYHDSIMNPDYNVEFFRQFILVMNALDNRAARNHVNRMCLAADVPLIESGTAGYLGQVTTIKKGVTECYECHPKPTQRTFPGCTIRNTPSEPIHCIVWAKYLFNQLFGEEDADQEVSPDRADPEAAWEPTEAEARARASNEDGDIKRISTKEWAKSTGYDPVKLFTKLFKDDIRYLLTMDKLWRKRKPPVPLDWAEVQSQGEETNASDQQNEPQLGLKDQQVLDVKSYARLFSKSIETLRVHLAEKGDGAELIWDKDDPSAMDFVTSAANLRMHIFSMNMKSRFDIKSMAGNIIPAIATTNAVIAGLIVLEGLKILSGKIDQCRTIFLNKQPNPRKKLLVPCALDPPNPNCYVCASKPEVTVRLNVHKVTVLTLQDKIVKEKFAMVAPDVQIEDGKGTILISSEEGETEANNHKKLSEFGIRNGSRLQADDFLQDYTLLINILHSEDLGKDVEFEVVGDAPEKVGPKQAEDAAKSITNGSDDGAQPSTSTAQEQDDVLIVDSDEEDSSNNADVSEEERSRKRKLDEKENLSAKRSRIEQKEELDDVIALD
Sequence of Large T antigen (P03070 whole entry): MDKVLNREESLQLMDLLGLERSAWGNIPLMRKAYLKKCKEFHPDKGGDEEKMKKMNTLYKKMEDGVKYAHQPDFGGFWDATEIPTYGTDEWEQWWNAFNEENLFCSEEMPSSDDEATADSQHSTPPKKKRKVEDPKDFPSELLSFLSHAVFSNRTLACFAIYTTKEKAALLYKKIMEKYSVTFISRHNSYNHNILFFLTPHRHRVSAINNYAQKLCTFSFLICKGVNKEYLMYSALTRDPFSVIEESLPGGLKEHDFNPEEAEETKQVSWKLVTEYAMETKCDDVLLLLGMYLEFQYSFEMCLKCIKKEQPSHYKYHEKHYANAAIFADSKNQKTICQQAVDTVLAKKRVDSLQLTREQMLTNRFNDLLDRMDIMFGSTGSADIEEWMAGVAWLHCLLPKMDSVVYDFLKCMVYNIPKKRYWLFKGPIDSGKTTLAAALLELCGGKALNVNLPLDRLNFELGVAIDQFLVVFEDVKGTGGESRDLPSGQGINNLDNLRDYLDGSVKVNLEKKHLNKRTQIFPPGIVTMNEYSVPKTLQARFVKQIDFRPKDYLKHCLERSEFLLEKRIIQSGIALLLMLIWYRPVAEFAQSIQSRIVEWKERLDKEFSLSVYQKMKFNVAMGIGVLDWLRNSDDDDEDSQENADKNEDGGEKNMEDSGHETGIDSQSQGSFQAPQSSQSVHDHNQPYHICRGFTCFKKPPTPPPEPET
Sequence of Luciferin 4-monooxygenase (P08659 whole entry): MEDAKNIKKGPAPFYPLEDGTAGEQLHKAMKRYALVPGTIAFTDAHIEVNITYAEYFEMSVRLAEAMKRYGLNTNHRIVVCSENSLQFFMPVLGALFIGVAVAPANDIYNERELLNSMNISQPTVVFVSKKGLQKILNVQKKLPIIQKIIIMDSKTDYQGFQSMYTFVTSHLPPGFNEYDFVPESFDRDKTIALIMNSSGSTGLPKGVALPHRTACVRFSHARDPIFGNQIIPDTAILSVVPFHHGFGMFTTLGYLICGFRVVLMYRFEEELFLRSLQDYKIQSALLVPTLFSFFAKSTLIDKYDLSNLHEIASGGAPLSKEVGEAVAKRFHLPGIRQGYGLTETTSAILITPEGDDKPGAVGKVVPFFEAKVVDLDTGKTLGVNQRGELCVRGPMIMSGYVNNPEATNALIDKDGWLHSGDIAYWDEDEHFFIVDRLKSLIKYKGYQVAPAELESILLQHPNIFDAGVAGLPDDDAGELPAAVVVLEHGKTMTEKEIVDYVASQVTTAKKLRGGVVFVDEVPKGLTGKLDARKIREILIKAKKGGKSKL

Turning to `Nc1ccccc1NC1=CC(=O)CC(c2ccco2)C1` (configuration not stated), the IC50 in [1] is 31.6 µM (inconclusive).
Consider `Cc1ccsc1/C=N/c1ccc(O)cc1`, for which the EC50 in assay [2] was > 380 µM (inconclusive). Besides, the 50% inhibitory concentration (IC50) is 9.41 µM (active) in assay [3], 2.36 µM (active) in assay [4], 31.2 µM (active) in assay [5] and 30.5 µM (inconclusive) in assay [1].
As to `Oc1c(N=Nc2ccccc2)sc2ccccc12`, the IC50 in assay [6] was > 67.5 µM (inactive). Also, the EC50 in assay [7] is 15 µM (active); in assay [8] it was > 67.5 µM (inactive); in [9], 1.26 µM (active); in assay [10], > 67.5 µM (inactive); in assay [11], > 67.5 µM (inactive).
For the compound `O=C(OCn1ncc(Cl)c(Cl)c1=O)c1ccc(C(F)(F)F)cc1`, the EC50 in assay [2] was 0.308 µM (active); in assay [12] it was > 38 µM (not active); in [13], 1.89 µM (active); in [14] it was > 120 µM (not active); in [15] it was > 120 µM (not active); in assay [16], > 120 µM (not active). Further, the EC50 in [18] was 4.13 µM (inconclusive); in [20] it was 1.92 µM (active). For the same compound, the AC50 in assay [17] was 20.6 µM (active); in assay [19], 1.23 µM (active).
`CCCOc1ccccc1C1CC(=O)NC2=C1C(=O)CCC2` (configuration not stated): the EC50 in assay [21] is 32.7 µM (active); in [22], 17.2 µM (active); in assay [23], 16 µM (active); in assay [25] it was 44.4 µM (active). Also, the CC50 in assay [24] was > 40 µM (active).

These data come from ChEMBL document CHEMBL1201862, “PubChem BioAssay data set” (2004).
